System in one data set: not listed separately
In words: Hepatic clearance in Sprague-Dawley rat by LC-MS/MS analysis. The conditions noted are these: in vivo. Type of data set: ADME.
T1 sequence (P48736 whole entry, canonical isoform): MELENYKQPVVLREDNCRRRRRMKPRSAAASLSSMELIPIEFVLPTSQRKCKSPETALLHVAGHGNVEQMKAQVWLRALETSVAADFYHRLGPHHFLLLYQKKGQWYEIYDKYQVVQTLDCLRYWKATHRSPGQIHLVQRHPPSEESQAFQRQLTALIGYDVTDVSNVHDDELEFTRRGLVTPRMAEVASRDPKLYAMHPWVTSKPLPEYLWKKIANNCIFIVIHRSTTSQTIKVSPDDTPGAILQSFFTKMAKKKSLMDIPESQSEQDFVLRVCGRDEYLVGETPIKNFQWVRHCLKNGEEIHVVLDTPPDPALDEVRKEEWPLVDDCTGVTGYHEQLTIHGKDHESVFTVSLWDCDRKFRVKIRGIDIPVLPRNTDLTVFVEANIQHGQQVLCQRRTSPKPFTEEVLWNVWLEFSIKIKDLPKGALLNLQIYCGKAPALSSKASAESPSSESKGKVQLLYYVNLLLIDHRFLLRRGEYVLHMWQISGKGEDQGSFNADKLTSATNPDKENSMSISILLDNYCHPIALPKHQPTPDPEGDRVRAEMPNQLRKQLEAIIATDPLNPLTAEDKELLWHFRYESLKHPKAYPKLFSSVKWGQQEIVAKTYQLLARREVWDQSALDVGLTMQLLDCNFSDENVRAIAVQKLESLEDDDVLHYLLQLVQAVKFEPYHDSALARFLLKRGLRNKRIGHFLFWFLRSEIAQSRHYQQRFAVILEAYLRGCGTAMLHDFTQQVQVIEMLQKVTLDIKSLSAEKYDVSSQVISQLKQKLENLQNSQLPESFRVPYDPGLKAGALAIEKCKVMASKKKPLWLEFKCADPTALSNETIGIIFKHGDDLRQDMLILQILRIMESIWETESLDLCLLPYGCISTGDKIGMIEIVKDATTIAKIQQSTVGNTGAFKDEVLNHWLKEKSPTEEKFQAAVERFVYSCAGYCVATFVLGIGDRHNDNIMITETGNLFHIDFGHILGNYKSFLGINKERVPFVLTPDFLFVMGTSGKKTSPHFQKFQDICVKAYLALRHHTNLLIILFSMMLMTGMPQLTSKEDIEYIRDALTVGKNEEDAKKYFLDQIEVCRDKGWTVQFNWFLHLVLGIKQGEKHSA
For the compound `Cc1cc(-c2ccn3nc(N)c(C(=O)NC4CC4)c3n2)cc2c1C(=O)N([C@@H](C)C1CC1)C2`, the CLH was found to be 6.7 mL/min/kg.

With `CCS(=O)(=O)c1cc(-c2ccn3nc(N)c(C(=O)NC4CC4)c3n2)cc2c1C(=O)N([C@@H](C)C1CC1)C2`, the CLH turned out to be 68.3 mL/min/kg.

In the case of `Cc1cc(-c2ccn3nc(N)c(C(=O)N[C@@H](CO)C4CC4)c3n2)cc2c1C(=O)N([C@@H](C)C1CC1)C2`, the CLH stood at 8.3 mL/min/kg.

Regarding `Cc1cc(-c2ccn3nc(N)c(C(=O)NC4CCC4)c3n2)cc2c1C(=O)N([C@@H](C)C1CC1)C2`, the CLH was 76.7 mL/min/kg.

A further data set has as its target T1, Phosphatidylinositol 4,5-bisphosphate 3-kinase catalytic subunit gamma isoform (Homo sapiens, UniProt P48736). In words: Inhibition of PI3Kgamma (unknown origin) in […] stimulated human THP-1 cells assessed as reduction in Akt phosphorylation level at Ser473 residue preincubated for 60 mins followed by rhMCP-1 stimulation and measured after 2 mins by AlphaLisa assay. The data set is classed as cell-based.
Conditions: not given
Background: Bead proximity is the source of the signal in Alpha formats.
For `Cc1cc(-c2ccn3nc(N)c(C(=O)NC4CC4)c3n2)cc2c1C(=O)N([C@@H](C)C1CC1)C2`, the half-inhibitory concentration (IC50) (commonly the concentration at which inhibition is half-maximal) is 212 nM.

As for `CCS(=O)(=O)c1cc(-c2ccn3nc(N)c(C(=O)NC4CC4)c3n2)cc2c1C(=O)N([C@@H](C)C1CC1)C2`, the IC50 is 67 nM.

Take `Cc1cc(-c2ccn3nc(N)c(C(=O)N[C@@H](CO)C4CC4)c3n2)cc2c1C(=O)N([C@@H](C)C1CC1)C2`: the half-inhibitory concentration (IC50) stood at 133 nM.

`Cc1cc(-c2ccn3nc(N)c(C(=O)NC4CCC4)c3n2)cc2c1C(=O)N([C@@H](C)C1CC1)C2`: the IC50 is 292 nM.

A further data set concerns the target T1, Phosphatidylinositol 4,5-bisphosphate 3-kinase catalytic subunit gamma isoform. In words: Inhibition of PI3Kgamma (unknown origin) using PIP2 as substrate preincubated for 1 hr followed by substrate addition and measured after 60 mins in presence of ATP by ADP-glo assay.
Conditions: not given
For orientation: In ADP-Glo the light output rises with the ADP produced.
As for `Cc1cc(-c2ccn3nc(N)c(C(=O)NC4CC4)c3n2)cc2c1C(=O)N([C@@H](C)C1CC1)C2`, the IC50 worked out at 3.6 nM.

As for `CCS(=O)(=O)c1cc(-c2ccn3nc(N)c(C(=O)NC4CC4)c3n2)cc2c1C(=O)N([C@@H](C)C1CC1)C2`, the IC50 amounted to 4.8 nM.

For `Cc1cc(-c2ccn3nc(N)c(C(=O)N[C@@H](CO)C4CC4)c3n2)cc2c1C(=O)N([C@@H](C)C1CC1)C2`, the IC50 is 2.9 nM.

Regarding `Cc1cc(-c2ccn3nc(N)c(C(=O)NC4CCC4)c3n2)cc2c1C(=O)N([C@@H](C)C1CC1)C2`, the half-inhibitory concentration (IC50) is 2.3 nM.

System in the next data set: not listed separately
In words: Metabolic stability in human hepatocytes assessed as intrinsic clearance per 10^6 cells at 0.5 uM by LC-MS/MS analysis. The conditions noted are these: read-out: CLH. The data set is classed as ADME, cell-based, Hepatocyte.
`Cc1cc(-c2ccn3nc(N)c(C(=O)NC4CC4)c3n2)cc2c1C(=O)N([C@@H](C)C1CC1)C2`: the hepatocyte CLint at 0.5 µM turned out to be 8.92 µL/min/1e6 cells.

Regarding `CCS(=O)(=O)c1cc(-c2ccn3nc(N)c(C(=O)NC4CC4)c3n2)cc2c1C(=O)N([C@@H](C)C1CC1)C2`, the hepatocyte CLint at 0.5 µM worked out at 2.03 µL/min/1e6 cells.

With `Cc1cc(-c2ccn3nc(N)c(C(=O)N[C@@H](CO)C4CC4)c3n2)cc2c1C(=O)N([C@@H](C)C1CC1)C2`, the hepatocyte CLint at 0.5 µM worked out at 2.03 µL/min/1e6 cells.

On to `Cc1cc(-c2ccn3nc(N)c(C(=O)NC4CCC4)c3n2)cc2c1C(=O)N([C@@H](C)C1CC1)C2`, for which the hepatocyte CLint at 0.5 µM stood at 29.3 µL/min/1e6 cells.

System in another data set: not listed separately
In words: Metabolic stability in rat hepatocyte assessed as intrinsic clearance per 10^8 cells at 0.5 uM by LC-MS/MS analysis. The conditions noted are these: hepatocytes. The data set is classed as ADME, cell-based.
Consider `Cc1cc(-c2ccn3nc(N)c(C(=O)NC4CC4)c3n2)cc2c1C(=O)N([C@@H](C)C1CC1)C2`, for which the hepatocyte intrinsic clearance stood at 1.5 µL/min.

As to `CCS(=O)(=O)c1cc(-c2ccn3nc(N)c(C(=O)NC4CC4)c3n2)cc2c1C(=O)N([C@@H](C)C1CC1)C2`, the hepatocyte intrinsic clearance is under 1.2 µL/min.

Take `Cc1cc(-c2ccn3nc(N)c(C(=O)N[C@@H](CO)C4CC4)c3n2)cc2c1C(=O)N([C@@H](C)C1CC1)C2`: the hepatocyte intrinsic clearance worked out at 1.31 µL/min.

For the compound `Cc1cc(-c2ccn3nc(N)c(C(=O)NC4CCC4)c3n2)cc2c1C(=O)N([C@@H](C)C1CC1)C2`, the hepatocyte intrinsic clearance was 82.7 µL/min.

The target of the next data set is Phosphatidylinositol 4,5-bisphosphate 3-kinase catalytic subunit alpha isoform (Homo sapiens, UniProt P42336). The data set is described as follows: Inhibition of PI3Kalpha (unknown origin) using PIP2 as substrate preincubated for 1 hr followed by substrate addition and measured after 60 mins in presence of ATP by ADP-glo assay.
Sequence of Phosphatidylinositol 4,5-bisphosphate 3-kinase catalytic subunit alpha isoform (P42336 whole entry, canonical isoform): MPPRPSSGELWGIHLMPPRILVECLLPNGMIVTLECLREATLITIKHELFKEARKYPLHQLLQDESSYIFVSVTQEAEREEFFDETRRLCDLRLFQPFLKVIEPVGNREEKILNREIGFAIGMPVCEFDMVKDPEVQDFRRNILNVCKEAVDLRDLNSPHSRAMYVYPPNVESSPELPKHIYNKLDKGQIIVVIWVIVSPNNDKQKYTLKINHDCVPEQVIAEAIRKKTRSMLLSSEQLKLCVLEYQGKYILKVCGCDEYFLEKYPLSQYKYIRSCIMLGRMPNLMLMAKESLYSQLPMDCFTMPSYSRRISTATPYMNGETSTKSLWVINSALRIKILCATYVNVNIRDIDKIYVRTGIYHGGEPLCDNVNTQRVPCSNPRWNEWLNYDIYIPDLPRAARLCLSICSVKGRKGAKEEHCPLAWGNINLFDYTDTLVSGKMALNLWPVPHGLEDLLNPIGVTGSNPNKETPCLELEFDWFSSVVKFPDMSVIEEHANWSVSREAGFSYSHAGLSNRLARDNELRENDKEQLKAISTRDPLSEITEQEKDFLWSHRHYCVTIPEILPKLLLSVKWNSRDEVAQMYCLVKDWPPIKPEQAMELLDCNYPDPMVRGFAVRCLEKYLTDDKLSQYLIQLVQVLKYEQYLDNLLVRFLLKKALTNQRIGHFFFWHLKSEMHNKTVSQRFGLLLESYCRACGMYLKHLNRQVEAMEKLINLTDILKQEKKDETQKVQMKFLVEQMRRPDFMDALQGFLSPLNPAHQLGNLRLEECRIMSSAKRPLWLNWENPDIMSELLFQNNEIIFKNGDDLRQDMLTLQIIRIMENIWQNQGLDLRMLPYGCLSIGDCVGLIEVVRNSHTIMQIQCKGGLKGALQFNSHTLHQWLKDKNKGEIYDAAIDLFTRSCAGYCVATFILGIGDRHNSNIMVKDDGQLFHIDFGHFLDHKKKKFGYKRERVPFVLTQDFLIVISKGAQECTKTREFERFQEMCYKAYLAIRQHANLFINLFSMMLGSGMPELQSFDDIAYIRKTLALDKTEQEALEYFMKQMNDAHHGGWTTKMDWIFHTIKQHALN
Conditions: not given
As for `Cc1cc(-c2ccn3nc(N)c(C(=O)NC4CC4)c3n2)cc2c1C(=O)N([C@@H](C)C1CC1)C2`, the IC50 is 3300 nM.

As for `CCS(=O)(=O)c1cc(-c2ccn3nc(N)c(C(=O)NC4CC4)c3n2)cc2c1C(=O)N([C@@H](C)C1CC1)C2`, the IC50 stood at 808 nM.

For the compound `Cc1cc(-c2ccn3nc(N)c(C(=O)N[C@@H](CO)C4CC4)c3n2)cc2c1C(=O)N([C@@H](C)C1CC1)C2`, the IC50 was over 10000 nM.

`Cc1cc(-c2ccn3nc(N)c(C(=O)NC4CCC4)c3n2)cc2c1C(=O)N([C@@H](C)C1CC1)C2`: the IC50 turned out to be 3660 nM.

The target of the next data set is T2, Phosphatidylinositol 4,5-bisphosphate 3-kinase catalytic subunit delta isoform (Homo sapiens, UniProt O00329).
T2 sequence (O00329 whole entry): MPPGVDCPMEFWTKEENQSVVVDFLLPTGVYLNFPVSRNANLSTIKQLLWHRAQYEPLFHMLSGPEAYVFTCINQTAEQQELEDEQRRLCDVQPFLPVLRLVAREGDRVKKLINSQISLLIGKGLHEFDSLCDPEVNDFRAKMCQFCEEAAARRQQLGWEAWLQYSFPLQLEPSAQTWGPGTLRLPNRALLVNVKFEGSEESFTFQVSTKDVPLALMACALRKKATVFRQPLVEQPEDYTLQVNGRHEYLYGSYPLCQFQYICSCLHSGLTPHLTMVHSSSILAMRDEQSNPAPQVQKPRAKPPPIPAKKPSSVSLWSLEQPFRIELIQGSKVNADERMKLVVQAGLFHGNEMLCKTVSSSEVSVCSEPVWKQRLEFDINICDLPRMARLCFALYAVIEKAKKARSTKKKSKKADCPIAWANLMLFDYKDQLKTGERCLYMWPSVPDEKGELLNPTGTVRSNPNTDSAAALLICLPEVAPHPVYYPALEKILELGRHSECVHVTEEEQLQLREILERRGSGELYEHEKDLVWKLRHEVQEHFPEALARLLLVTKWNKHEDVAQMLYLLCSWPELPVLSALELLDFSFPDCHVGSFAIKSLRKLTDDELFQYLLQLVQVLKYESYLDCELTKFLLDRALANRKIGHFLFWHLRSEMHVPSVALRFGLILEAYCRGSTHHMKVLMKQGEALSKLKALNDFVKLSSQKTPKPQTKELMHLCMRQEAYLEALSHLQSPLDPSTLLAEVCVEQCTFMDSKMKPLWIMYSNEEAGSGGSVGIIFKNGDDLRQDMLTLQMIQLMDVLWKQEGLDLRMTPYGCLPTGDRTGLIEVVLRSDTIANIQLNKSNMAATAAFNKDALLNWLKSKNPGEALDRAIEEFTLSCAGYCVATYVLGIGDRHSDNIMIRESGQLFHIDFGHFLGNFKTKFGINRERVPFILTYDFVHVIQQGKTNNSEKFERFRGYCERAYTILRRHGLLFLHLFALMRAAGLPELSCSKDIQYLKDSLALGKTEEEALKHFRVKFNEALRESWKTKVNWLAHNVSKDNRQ
In words: Inhibition of PI3Kdelta (unknown origin) using PIP2 as substrate preincubated for 1 hr followed by substrate addition and measured after 60 mins in presence of ATP by ADP-glo assay.
Conditions: not given
For `Cc1cc(-c2ccn3nc(N)c(C(=O)NC4CC4)c3n2)cc2c1C(=O)N([C@@H](C)C1CC1)C2`, the IC50 amounted to 1670 nM.

In the case of `CCS(=O)(=O)c1cc(-c2ccn3nc(N)c(C(=O)NC4CC4)c3n2)cc2c1C(=O)N([C@@H](C)C1CC1)C2`, the IC50 came out at 835 nM.

On to `Cc1cc(-c2ccn3nc(N)c(C(=O)N[C@@H](CO)C4CC4)c3n2)cc2c1C(=O)N([C@@H](C)C1CC1)C2`, for which the IC50 was over 10000 nM.

`Cc1cc(-c2ccn3nc(N)c(C(=O)NC4CCC4)c3n2)cc2c1C(=O)N([C@@H](C)C1CC1)C2`: the IC50 was 1590 nM.

The species named for the next data set is Homo sapiens. The data set is described as follows: Selectivity ratio of IC50 for inhibition of PI3Kalpha (unknown origin) to IC50 for inhibition of PI3Kgamma (unknown origin).
Conditions: not given
In the case of `Cc1cc(-c2ccn3nc(N)c(C(=O)NC4CC4)c3n2)cc2c1C(=O)N([C@@H](C)C1CC1)C2`, the Ratio IC50 worked out at 904.

Turning to `CCS(=O)(=O)c1cc(-c2ccn3nc(N)c(C(=O)NC4CC4)c3n2)cc2c1C(=O)N([C@@H](C)C1CC1)C2`, the Ratio IC50 is 170.

As to `Cc1cc(-c2ccn3nc(N)c(C(=O)N[C@@H](CO)C4CC4)c3n2)cc2c1C(=O)N([C@@H](C)C1CC1)C2`, the Ratio IC50 is over 3440.

In the case of `Cc1cc(-c2ccn3nc(N)c(C(=O)NC4CCC4)c3n2)cc2c1C(=O)N([C@@H](C)C1CC1)C2`, the Ratio IC50 was 1580.

The next data set is filed under the species Homo sapiens. In words: Selectivity ratio of IC50 for inhibition of PI3Kdelta (unknown origin) to IC50 for inhibition of PI3Kgamma (unknown origin).
Conditions: not given
Consider `Cc1cc(-c2ccn3nc(N)c(C(=O)NC4CC4)c3n2)cc2c1C(=O)N([C@@H](C)C1CC1)C2`, for which the Ratio IC50 came out at 460.

As for `CCS(=O)(=O)c1cc(-c2ccn3nc(N)c(C(=O)NC4CC4)c3n2)cc2c1C(=O)N([C@@H](C)C1CC1)C2`, the Ratio IC50 stood at 175.

With `Cc1cc(-c2ccn3nc(N)c(C(=O)N[C@@H](CO)C4CC4)c3n2)cc2c1C(=O)N([C@@H](C)C1CC1)C2`, the Ratio IC50 was over 3440.

`Cc1cc(-c2ccn3nc(N)c(C(=O)NC4CCC4)c3n2)cc2c1C(=O)N([C@@H](C)C1CC1)C2`: the Ratio IC50 was 668.

The target of the next data set is CYP3A4 (Homo sapiens, UniProt P08684). The data set is described as follows: in vitro. The conditions noted are these: human liver microsomes, probe midazolam. On the technique in general: Liver microsomes are vesicles of endoplasmic reticulum, rich in cytochrome P450 enzymes.
Sequence of CYP3A4 (P08684 whole entry): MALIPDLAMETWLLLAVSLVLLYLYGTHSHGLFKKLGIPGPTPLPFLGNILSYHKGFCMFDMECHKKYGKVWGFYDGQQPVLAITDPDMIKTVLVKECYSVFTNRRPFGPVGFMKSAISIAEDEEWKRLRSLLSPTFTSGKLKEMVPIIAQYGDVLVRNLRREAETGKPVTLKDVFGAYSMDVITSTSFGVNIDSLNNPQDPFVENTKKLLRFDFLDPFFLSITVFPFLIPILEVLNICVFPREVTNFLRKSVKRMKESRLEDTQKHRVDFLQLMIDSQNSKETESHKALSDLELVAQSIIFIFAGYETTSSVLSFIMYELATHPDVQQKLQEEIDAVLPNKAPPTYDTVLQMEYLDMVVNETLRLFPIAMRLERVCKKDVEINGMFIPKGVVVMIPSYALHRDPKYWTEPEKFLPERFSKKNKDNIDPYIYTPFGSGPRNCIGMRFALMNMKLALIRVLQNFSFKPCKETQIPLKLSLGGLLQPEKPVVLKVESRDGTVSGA
Description: Time dependent inhibition of CYP3A4 in human liver microsomes at 10 uM using midazolam as substrate preincubated for 30 mins in presence of NADPH by LC/MS/MS analysis relative to control
In the case of `Cc1cc(-c2ccn3nc(N)c(C(=O)NC4CC4)c3n2)cc2c1C(=O)N([C@@H](C)C1CC1)C2`, the inhibition (as a rule, the drop in the measured response relative to a control, in per cent) at 30 min, 10 µM was found to be 27%.

In the case of `CCS(=O)(=O)c1cc(-c2ccn3nc(N)c(C(=O)NC4CC4)c3n2)cc2c1C(=O)N([C@@H](C)C1CC1)C2`, the inhibition at 30 min, 10 µM was 16%.

As to `Cc1cc(-c2ccn3nc(N)c(C(=O)N[C@@H](CO)C4CC4)c3n2)cc2c1C(=O)N([C@@H](C)C1CC1)C2`, the inhibition at 30 min, 10 µM stood at 7%.

In turn, `Cc1cc(-c2ccn3nc(N)c(C(=O)NC4CCC4)c3n2)cc2c1C(=O)N([C@@H](C)C1CC1)C2` displayed an inhibition at 30 min, 10 µM of 46%.

(Values after ChEMBL document CHEMBL5154644, “Design, Synthesis, and Structure-Activity Relationship Optimization of Pyrazolopyrimidine Amide Inhibitors of Phosphoinositide 3-Kinase γ (PI3Kγ)” (J Med Chem, 2022).)
